The numbers were not newly measured in PMC7984856 (European journal of medicinal chemistry, 2021), which cites them from elsewhere.

This data set relates to catalepsy in rats. As to conditions: previous in vivo behavioral studies, ref [29].

Structures are written as SMILES.

`Fc1ccc(CCCCN2CCN(c3ccccn3)CC2)cc1` [Compound 2, 1-(4-(4-fluorophenyl)butyl)-4-(pyridin-2-yl)piperazine]: the “propensity to cause catalepsy” value is on record as “low propensity to cause catalepsy”.
